# Key:
# [1] = Plasma pharmacokinetics, 150/300/600 mg once daily, first day; assay type: in vivo; conditions: male, human, healthy adult men
# [2] = Influence of meal on pharmacokinetics, single 450 mg dose; conditions: male, human, in vivo, oral
# Procedure: The median tmax of this drug was prolonged by postprandial administration for about 1.5 hours as compared with fasting.
# [3] = clinical; conditions: male, human, plasma, oral, 450 mg
# Procedure: Pharmacokinetics. […] The ratio of metabolite to parent was calculated for each glucuronide metabolite for AUC(0-t); and AUC(0-inf) and Cmax.
# Comparative Bioavailability. […] Factors incorporated in the model included: Sequence, Subject (Sequence), Period, and Treatment.
# Treatment of Subjects. […] All subjects are dosed on the same day for Day 1 of Confinement Period 1, and are crossed over to the alternate treatment and are dosed on the same day for Day 1 of Confinement Period 2. Both treatments are administered in a fasted state, and a four-day Washout Period separates each Confinement Period.
# [4] = [14C]-labeled Compound 1 650 mg metabolism and excretion; assay type: in vivo, human
# Source text: Compound 1 is metabolized via UGT, mainly producing O-glucuronide conjugates.
# The urinary excretion rate of this drug and acyl glucuronide is less than 1% of the total radioactivity.
# [5] = target: human PHD3 (Homo sapiens, UniProt Q9H6Z9); assay: PHD inhibitory action, PHD3; assay type: biochemical; conditions: in vitro
# human PHD3, sequence (Q9H6Z9 whole entry, canonical isoform): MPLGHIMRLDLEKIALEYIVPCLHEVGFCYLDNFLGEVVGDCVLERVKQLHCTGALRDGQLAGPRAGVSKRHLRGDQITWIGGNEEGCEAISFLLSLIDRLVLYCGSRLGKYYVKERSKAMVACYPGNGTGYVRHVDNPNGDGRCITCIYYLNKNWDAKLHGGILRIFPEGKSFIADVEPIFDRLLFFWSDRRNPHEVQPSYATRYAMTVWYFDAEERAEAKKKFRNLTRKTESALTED
# [6] = test system: UGT1A1, UGT1A7, UGT1A8 and UGT1A9; assay: UGT isoforms generating O-glucuronide in vitro; assay type: in vitro ADME, human
# [7] = target: CYP2C9 (Homo sapiens, UniProt P11712); assay: CYP2C9 inhibition in vitro; assay type: in vitro ADME
# CYP2C9, sequence (P11712 whole entry): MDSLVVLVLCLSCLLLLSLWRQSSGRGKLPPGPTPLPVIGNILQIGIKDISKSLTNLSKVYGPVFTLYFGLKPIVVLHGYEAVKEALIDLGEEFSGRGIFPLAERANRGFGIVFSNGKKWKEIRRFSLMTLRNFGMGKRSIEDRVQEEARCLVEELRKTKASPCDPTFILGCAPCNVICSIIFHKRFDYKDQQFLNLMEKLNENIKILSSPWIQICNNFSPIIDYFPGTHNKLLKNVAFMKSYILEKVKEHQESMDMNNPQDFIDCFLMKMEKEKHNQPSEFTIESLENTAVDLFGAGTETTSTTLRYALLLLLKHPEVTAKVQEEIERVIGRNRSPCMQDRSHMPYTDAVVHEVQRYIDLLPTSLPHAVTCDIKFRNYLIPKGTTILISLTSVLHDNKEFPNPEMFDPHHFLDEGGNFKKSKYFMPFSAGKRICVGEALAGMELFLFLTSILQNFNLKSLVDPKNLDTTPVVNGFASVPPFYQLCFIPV
# [8] = target: human PHD1 (Homo sapiens, UniProt Q96KS0); assay: PHD inhibitory action, PHD1; assay type: biochemical; conditions: in vitro
# human PHD1, sequence (Q96KS0 whole entry): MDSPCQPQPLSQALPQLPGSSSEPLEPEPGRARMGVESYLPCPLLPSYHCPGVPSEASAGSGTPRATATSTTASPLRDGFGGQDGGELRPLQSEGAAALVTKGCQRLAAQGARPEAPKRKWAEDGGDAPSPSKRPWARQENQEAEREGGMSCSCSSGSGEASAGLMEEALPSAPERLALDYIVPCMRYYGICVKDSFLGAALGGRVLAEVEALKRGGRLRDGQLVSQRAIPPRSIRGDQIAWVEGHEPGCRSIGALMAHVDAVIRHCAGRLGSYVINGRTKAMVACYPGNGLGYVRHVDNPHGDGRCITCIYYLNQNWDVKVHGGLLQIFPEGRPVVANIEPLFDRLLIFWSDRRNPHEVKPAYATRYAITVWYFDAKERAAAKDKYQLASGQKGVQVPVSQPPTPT
# [9] = Plasma protein binding, equilibrium dialysis; assay type: in vitro ADME; conditions: human, in vitro, read-out: human plasma protein binding rate
# Source text: The human plasma protein binding rate of this drug was higher than 99% (in vitro, equilibrium dialysis).
# [10] = Phase I furosemide interaction study; assay type: in vivo, human; conditions: furosemide 40 mg and vadadustat 600 mg once daily
# Procedure: The study included 3 periods as follow: a 28-day screening period, 7-21 day in clinic period, and a 30-day follow up period post last dose.
# On Days 3 to 6, subjects received vadadustat 600 mg (once daily).
# [11] = Phase I interaction study with statins and sulfasalazine: safety and tolerability; assay type: in vivo, human; conditions: taken alone or during treatment with rosuvastatin, pravastatin, atorvastatin, or simvastatin
# Procedure: The pharmacokinetic (pK) parameters and safety of said drugs administered alone and in combination with Compound 1 were characterized.
# Safety and Tolerability. Subject safety were evaluated throughout the study beginning on Day 1 (Baseline) until 30 days (±2 days) post last dose. The following safety assessments were performed: physical exam, 12-lead ECG (electrocardiogram), vital signs, clinical laboratory results, QuantiFERON®-TB Test, serology, and pregnancy. Adverse events (AE) were summarized.
# [12] = target: T1, CYP2C8 (Homo sapiens, UniProt P10632); assay: CYP2C8 inhibition in vitro; assay type: in vitro ADME
# T1 sequence (P10632 1-490): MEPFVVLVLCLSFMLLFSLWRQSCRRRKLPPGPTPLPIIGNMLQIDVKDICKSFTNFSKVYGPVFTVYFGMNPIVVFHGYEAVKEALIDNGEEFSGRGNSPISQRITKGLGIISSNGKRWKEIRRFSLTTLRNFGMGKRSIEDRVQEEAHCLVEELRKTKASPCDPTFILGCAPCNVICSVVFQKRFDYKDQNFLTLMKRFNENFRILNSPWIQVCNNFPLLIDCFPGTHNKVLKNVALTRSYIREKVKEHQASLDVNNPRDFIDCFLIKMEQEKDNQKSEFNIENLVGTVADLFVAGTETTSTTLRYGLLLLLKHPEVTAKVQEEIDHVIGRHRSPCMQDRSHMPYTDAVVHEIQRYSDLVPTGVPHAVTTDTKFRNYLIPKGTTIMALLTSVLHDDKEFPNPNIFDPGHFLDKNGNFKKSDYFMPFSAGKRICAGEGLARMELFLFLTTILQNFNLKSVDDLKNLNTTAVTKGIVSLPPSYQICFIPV
# [13] = After Meal, healthy adult males
smiles,measurement,setting,value
"O=C(O)CNC(=O)c1ncc(-c2cccc(Cl)c2)cc1O [Compound 1, {[5-(3-chlorophenyl)-3-hydroxypyridine-2-carbonyl]amino}acetic acid]",AUC(0-t),[1]; 150 mg once daily,123 ± 30.5 µg·h/mL
same,Cmax,[1]; 150 mg once daily,24200 ± 4990 ng/mL
same,Tmax,[1]; 150 mg once daily,0.75 h
same,half-life,[1]; 150 mg once daily,5.96 ± 0.914 h
same,AUC(0-t),[1]; 300 mg once daily,289 ± 75.3 µg·h/mL
same,Cmax,[1]; 300 mg once daily,44300 ± 10800 ng/mL
same,Tmax,[1]; 300 mg once daily,1.95 h
same,half-life,[1]; 300 mg once daily,6.14 ± 0.763 h
same,AUC(0-t),[1]; 600 mg once daily,624 ± 205 µg·h/mL
same,Cmax,[1]; 600 mg once daily,84800 ± 22300 ng/mL
same,Tmax,[1]; 600 mg once daily,1.98 h
same,half-life,[1]; 600 mg once daily,6.07 ± 0.419 h
same,AUC(0-inf),[2]; [13],351 ± 101 µg·h/mL
same,Cmax,[2]; [13],46300 ± 12200 ng/mL
same,Tmax,"[2]; After Meal, healthy adult males, read-out: tmax",3.52 h
same,AUC(0-inf),"[2]; Fasting, healthy adult males",371 ± 100 µg·h/mL
same,Cmax,"[2]; Fasting, healthy adult males",63100 ± 14600 ng/mL
same,Tmax,"[2]; Fasting, healthy adult males, read-out: tmax",2 h
same,Tmax,"[2]; compared with fasting, read-out: prolongation of median tmax by postprandial administration",~1.5 h
same,AUC(0-inf),[3],263 µg·h/mL
same,AUC(0-t),[3],253 µg·h/mL
same,Cmax,[3],45300 ng/mL
same,Tmax,[3],3 h
same,total radioactivity administered found in urine,"[4]; single 650 mg [14C]-labeled, by 72 hours after administration",58.9%
same,share of the total radioactivity (AUC0-∞) in plasma,"[4]; single oral 650 mg [14C]-labeled Compound 1, healthy adult males",75%
same,IC50,[5],7.63 nM
same,UGT isoforms involved in the generation of O-glucuronide,[6],"UGT1A1, UGT1A7, UGT1A8 and UGT1A9"
same,inhibitory effect on CYP2C9,[7],inhibitory effect
same,IC50,[8],15.4 nM
same,fraction unbound,[9],< 0.01
same,serious TEAEs,[10],No serious TEAEs
same,tolerability,[11],well tolerated
same,inhibitory effect on CYP2C8,[12],inhibitory effect
